Measurements: US5330897A, “Sialic acid binding lectin of protozoan origin” (South Alabama Medical Science Foundation, priority 1992, dated 1994)

Experiments:
[1] = system: T. mobilensis lectin; assay: Inhibition of T. mobilensis lectin-mediated hemagglutination; format: biochemical, Tritrichomonas mobilensis; details: for Minimal Inhibitory Conc.: 2 units of hemagglutinin
[2] = system: T. augusta cell-free lysate hemagglutinin; assay: Inhibition of HA activity of T. augusta cell-free lysate; format: biochemical, Tritrichomonas augusta
[3] = system: live cells of T. foetus; assay: Inhibition of HA by live cells of T. foetus; format: cell-based, Tritrichomonas foetus
[4] = system: T. foetus cell-free lysate hemagglutinin; assay: Inhibition of HA activity of T. foetus cell-free lysate; format: biochemical, Tritrichomonas foetus
[5] = system: T. mobilensis cell-free lysate hemagglutinin; assay: Inhibition of HA activity of T. mobilensis cell-free lysate; format: biochemical, Tritrichomonas mobilensis
[6] = system: live T. mobilensis; assay: Slide agglutination of live T. mobilensis by lectins; format: cell-based, Tritrichomonas mobilensis; details: carbohydrate 100 mM
Procedure: Agglutination of live T. mobilensis with lectins with various carbohydrate binding specificities was performed by a slide agglutination assay. Lectin Kit LK-2000 (Vector Laboratories) consisted of the following lectins: concanavalin A (ConA), wheat germ agglutinin (WGA), soybean agglutinin (SBA), gorse seed agglutinin (UEA-1), castor bean agglutinin type 1 (RCA-1), peanut agglutinin (PNA), and horse gram agglutinin (DBA). Limulus polyphemus lectin (LPA) was obtained from Sigma, and Limax flavus (LFA) agglutinin from EY Labs. Lectins and specific carbohydrates were dissolved in buffers recommended by the manufacturers. Twenty five μl of washed T. mobilensis (about 2×10^7 /ml) were placed onto a glass slide. An equal volume of lectin (200 μg/ml) or lectin with specific carbohydrate (final concentration, 100 mM) was added. After mixing for 2 to 3 min, the agglutination was evaluated under a microscope.

Egg Albumin: glycoprotein or protein tested as inhibitor
Minimal Inhibitory Conc. ([1]; glycoproteins or proteins): > 1000 µg/mL

Orosomucoid: sialoconjugate (sialoglycoprotein)
Conc. required to inhibit 2 HA units, T. augusta ([2]; sialoglycoproteins): 150 µg/mL | Conc. required to Inhibit 2 HA Units [3]: 500 µg/mL | Conc. required to inhibit 2 HA units, T. foetus ([4]; sialoglycoproteins): 150 µg/mL | Conc. required to inhibit 2 HA units, T. mobilensis ([5]; sialoglycoproteins): 150 µg/mL

CC(=O)N[C@H]1C(O)O[C@H](CO)[C@H](O)[C@@H]1O (stereo partly shown) [N-acetylgalactosamine]
Effect of specific carbohydrate on agglutinating activity of the appropriate lectin [6]: abolished agglutinating activity | Conc. required to inhibit 2 HA units, T. augusta ([2]; carbohydrates, […]): > 200 µg/mL | Conc. required to inhibit 2 HA units, T. foetus ([4]; carbohydrates, […]): > 200 µg/mL | Conc. required to inhibit 2 HA units, T. mobilensis ([5]; carbohydrates, […]): > 200 µg/mL | Minimal Inhibitory Conc. ([1]; carbohydrates): > 100 mM

OC[C@H]1OC(O)[C@@H](O)[C@@H](O)[C@@H]1O (stereo partly drawn) [D-mannose]
Effect of specific carbohydrate on agglutinating activity of the appropriate lectin [6]: abolished agglutinating activity | Conc. required to inhibit 2 HA units, T. augusta ([2]; carbohydrates, […]): > 200 µg/mL | Conc. required to inhibit 2 HA units, T. foetus ([4]; carbohydrates, […]): > 200 µg/mL | Conc. required to inhibit 2 HA units, T. mobilensis ([5]; carbohydrates, […]): > 200 µg/mL | Minimal Inhibitory Conc. ([1]; carbohydrates): > 100 mM

OC[C@H]1OC(O)[C@H](O)[C@@H](O)[C@@H]1O (stereo partly drawn) [D-glucose]
Conc. required to inhibit 2 HA units, T. augusta ([2]; carbohydrates, […]): > 200 µg/mL | Conc. required to inhibit 2 HA units, T. foetus ([4]; carbohydrates, […]): > 200 µg/mL | Conc. required to inhibit 2 HA units, T. mobilensis ([5]; carbohydrates, […]): > 200 µg/mL | Minimal Inhibitory Conc. ([1]; carbohydrates): > 100 mM

O=C(CO)[C@@H](O)[C@H](O)[C@H](O)CO [D-fructose]
Conc. required to inhibit 2 HA units, T. augusta ([2]; carbohydrates, […]): > 200 µg/mL | Conc. required to inhibit 2 HA units, T. foetus ([4]; carbohydrates, […]): > 200 µg/mL | Conc. required to inhibit 2 HA units, T. mobilensis ([5]; carbohydrates, […]): > 200 µg/mL | Minimal Inhibitory Conc. ([1]; carbohydrates): > 100 mM

COC(=O)C1(OC)CC(O)C(NC(C)=O)C(C(O)C(O)CO)O1 (stereo not drawn) [N-acetylneuraminic acid methyl ester, β-methyl glycoside]
Minimal Inhibitory Conc. ([1]; carbohydrates): > 100 mM

GD1A
Inhibition of hemagglutination by gangliosides ([1]; at mg/ml concentrations): did not inhibit

glucuronic acid
Minimal Inhibitory Conc. ([1]; carbohydrates): > 100 mM

OC[C@H]1O[C@@](CO)(O[C@H]2O[C@H](CO)[C@@H](O)[C@H](O)[C@H]2O)[C@@H](O)[C@@H]1O [Sucrose]
Conc. required to inhibit 2 HA units, T. augusta ([2]; carbohydrates, […]): > 200 µg/mL | Conc. required to inhibit 2 HA units, T. foetus ([4]; carbohydrates, […]): > 200 µg/mL | Conc. required to inhibit 2 HA units, T. mobilensis ([5]; carbohydrates, […]): > 200 µg/mL | Minimal Inhibitory Conc. ([1]; carbohydrates): > 100 mM

CC(=O)N[C@H]1[C@H](O[C@H]2[C@H](O)[C@@H](NC(C)=O)C(O)O[C@@H]2CO)O[C@H](CO)[C@@H](O)[C@@H]1O (stereo partly shown) [N,N-diacetyl chitobiose]
Minimal Inhibitory Conc. ([1]; carbohydrates): > 100 mM

COC1(C(=O)O)CC(O)C(NC(C)=O)C(C(O)C(O)CO)O1 (stereo not drawn) [N-acetylneruaminic acid β-methyl glycoside]
Minimal Inhibitory Conc. ([1]; carbohydrates): > 100 mM

OC1OC[C@@H](O)[C@H](O)[C@H]1O (stereo partly drawn) [D-xylose]
Conc. required to inhibit 2 HA units, T. augusta ([2]; carbohydrates, […]): > 200 µg/mL | Conc. required to inhibit 2 HA units, T. foetus ([4]; carbohydrates, […]): > 200 µg/mL | Conc. required to inhibit 2 HA units, T. mobilensis ([5]; carbohydrates, […]): > 200 µg/mL | Minimal Inhibitory Conc. ([1]; carbohydrates): > 100 mM

Avidin: glycoprotein or protein tested as inhibitor
Minimal Inhibitory Conc. ([1]; glycoproteins or proteins): > 1000 µg/mL

O=P(O)(O)OC1O[C@H](CO)[C@@H](O)[C@H](O)[C@@H]1O (stereo partly shown) [mannose-1-phosphate]
Minimal Inhibitory Conc. ([1]; carbohydrates): > 100 mM

OC1OC[C@@H](O)[C@@H](O)[C@@H]1O (stereo partly drawn) [D-arabinose]
Conc. required to inhibit 2 HA units, T. augusta ([2]; carbohydrates, […]): > 200 µg/mL | Conc. required to inhibit 2 HA units, T. foetus ([4]; carbohydrates, […]): > 200 µg/mL | Conc. required to inhibit 2 HA units, T. mobilensis ([5]; carbohydrates, […]): > 200 µg/mL | Minimal Inhibitory Conc. ([1]; carbohydrates): > 100 mM

Bovine Albumin: glycoprotein or protein tested as inhibitor
Minimal Inhibitory Conc. ([1]; glycoproteins or proteins): > 1000 µg/mL

CC(=O)N[C@H]1C(O)O[C@H](CO)[C@@H](O)[C@@H]1O[C@H](C)C(=O)O (stereo partly shown) [N-acetylmuramic acid]
Minimal Inhibitory Conc. ([1]; carbohydrates): > 100 mM

OC[C@H]1OC(O)[C@H](O)[C@@H](O)[C@H]1O (stereo partly drawn) [D-galactose]
Effect of specific carbohydrate on agglutinating activity of the appropriate lectin [6]: abolished agglutinating activity | Conc. required to inhibit 2 HA units, T. augusta ([2]; carbohydrates, […]): > 200 µg/mL | Conc. required to inhibit 2 HA units, T. foetus ([4]; carbohydrates, […]): > 200 µg/mL | Conc. required to inhibit 2 HA units, T. mobilensis ([5]; carbohydrates, […]): > 200 µg/mL | Minimal Inhibitory Conc. ([1]; carbohydrates): > 100 mM

O=P(O)(O)OC[C@H]1OC(O)[C@@H](O)[C@@H](O)[C@@H]1O (stereo partly shown) [Mannose-6-phosphate]
Minimal Inhibitory Conc. ([1]; carbohydrates): > 100 mM

C[C@H]1OC(O)[C@H](O)[C@@H](O)[C@H]1O (stereo partly drawn) [D-fucose]
Effect of specific carbohydrate on agglutinating activity of the appropriate lectin [6]: abolished agglutinating activity | Conc. required to inhibit 2 HA units, T. augusta ([2]; carbohydrates, […]): > 200 µg/mL | Conc. required to inhibit 2 HA units, T. foetus ([4]; carbohydrates, […]): > 200 µg/mL | Conc. required to inhibit 2 HA units, T. mobilensis ([5]; carbohydrates, […]): > 200 µg/mL | Minimal Inhibitory Conc. ([1]; carbohydrates): > 100 mM

Lysozyme: glycoprotein or protein tested as inhibitor
Minimal Inhibitory Conc. ([1]; glycoproteins or proteins): > 1000 µg/mL

O=C(O)[C@H]1OC(O)[C@H](O)[C@@H](O)[C@H]1O (stereo partly drawn) [D-galacturonic acid]
Minimal Inhibitory Conc. ([1]; carbohydrates): > 100 mM

Bovine submaxillary mucin
Conc. required to inhibit 2 HA units, T. augusta ([2]; sialoglycoproteins): 40 µg/mL | Conc. required to Inhibit 2 HA Units [3]: 125 µg/mL | Conc. required to inhibit 2 HA units, T. foetus ([4]; sialoglycoproteins): 60 µg/mL | Conc. required to inhibit 2 HA units, T. mobilensis ([5]; sialoglycoproteins): 60 µg/mL | Minimal Inhibitory Conc. ([1]; glycoproteins or proteins): 0.65 µg/mL

CC(=O)NC1C(O)CC(OC2C(O)C(CO)OC(OC3C(CO)OC(O)C(O)C3O)C2O)(C(=O)O)OC1C(O)C(O)CO (stereo not shown) [3'-sialyllactose]
Minimal Inhibitory Conc. ([1]; carbohydrates): 2.0 mM

CC(=O)N[C@H]1[C@@H](O)[C@H](O)[C@@H](CO)O[C@H]1O [N-acetyl-β-D-mannosamine]
Minimal Inhibitory Conc. ([1]; carbohydrates): > 100 mM

OC[C@H]1O[C@H](O[C@H]2[C@H](O)[C@@H](O)C(O)O[C@@H]2CO)[C@H](O)[C@@H](O)[C@@H]1O (mixture of isomers) [Maltose]
Minimal Inhibitory Conc. ([1]; carbohydrates): > 100 mM

Laminin
Minimal Inhibitory Conc. ([1]; glycoproteins or proteins): 6.8 µg/mL

CC(=O)NC1C(O)CC(OCC2OC(OC3C(CO)OC(O)C(O)C3O)C(O)C(O)C2O)(C(=O)O)OC1C(O)C(O)CO (stereo not shown) [6'-sialyllactose]
Minimal Inhibitory Conc. ([1]; carbohydrates): 1.0 mM

Fibronectin
Minimal Inhibitory Conc. ([1]; glycoproteins or proteins): > 333 µg/mL

B1: Asialofetuin: asialo- analog of fetuin (protein, UniProt P12763 19-359, looked up)
Alpha-2-HS-glycoprotein: IPLDPVAGYKEPACDDPDTEQAALAAVDYINKHLPRGYKHTLNQIDSVKVWPRRPTGEVYDIEIDTLETTCHVLDPTPLANCSVRQQTQHAVEGDCDIHVLKQDGQFSVLFTKCDSSPDSAEDVRKLCPDCPLLAPLNDSRVVHAVEVALATFNAESNGSYLQLVEISRAQFVPLPVSVSVEFAVAATDCIAKEVVDPTKCNLLAEKQYGFCKGSVIQKALGGEDVRVTCTLFQTQPVIPQPQPDGAEAEAPSAVPDAAGPTPSAAGPPVASVVVGPSVVAVPLPLHRAHYDLRHTFSGVASVESSSGEAFHVGKTPIVGQPSIPGGPVRLCPGRIRYFKI
modifications: desialylated
notes: asialo- analog of fetuin
Minimal Inhibitory Conc. ([1]; glycoproteins or proteins): 26.0 µg/mL

B2: Glycophorin: a major sialoglycoprotein of erythrocyte membranes (protein, UniProt P02724 20-150, looked up)
Glycophorin-A: LSTTEVAMHTSTSSSVTKSYISSQTNDTHKRDTYAATPRAHEVSEISVRTVYPPEEETGERVQLAHHFSEPEITLIIFGVMAGVIGTILLISYGIRRLIKKSPSDVKPLPSPDTDVPLSSVEIENPETSDQ
Conc. required to inhibit 2 HA units, T. augusta ([2]; sialoglycoproteins): 10 µg/mL | Conc. required to Inhibit 2 HA Units [3]: 10 µg/mL | Conc. required to inhibit 2 HA units, T. foetus ([4]; sialoglycoproteins): 10 µg/mL | Conc. required to inhibit 2 HA units, T. mobilensis ([5]; sialoglycoproteins): 10 µg/mL | Minimal Inhibitory Conc. ([1]; glycoproteins or proteins): 0.42 µg/mL

B3: Asialoglycophorin: glycophorin lacking the sialic acid (protein, UniProt P02724 20-150, looked up)
Glycophorin-A: LSTTEVAMHTSTSSSVTKSYISSQTNDTHKRDTYAATPRAHEVSEISVRTVYPPEEETGERVQLAHHFSEPEITLIIFGVMAGVIGTILLISYGIRRLIKKSPSDVKPLPSPDTDVPLSSVEIENPETSDQ
modifications: desialylated
notes: glycophorin lacking the sialic acid
Conc. required to inhibit 2 HA units, T. augusta ([2]; sialoglycoproteins): 500 µg/mL | Conc. required to Inhibit 2 HA Units [3]: 500 µg/mL | Conc. required to inhibit 2 HA units, T. foetus ([4]; sialoglycoproteins): 500 µg/mL | Conc. required to inhibit 2 HA units, T. mobilensis ([5]; sialoglycoproteins): 500 µg/mL | Minimal Inhibitory Conc. ([1]; glycoproteins or proteins): 83.3 µg/mL
